In brackets after ≈: the same amount, converted by molar mass. Marks after values point to notes of the source that are not given here.
How the values were obtained:
[1] = system: human red blood cells; assay: Hemolysis time study (0-8 hours, 8-500 μg/ml)
Protocol: The percent hemolysis of cells was determined spectrophotometrically by comparison with the complete hemolysis of cells in water.
[…] Peptide samples were diluted 2 fold in order to determine the concentration that produced no hemolysis. […] Hemoglobin release was determined spectrophotometrically at 562 nm. The hemolytic titer was the highest 2-fold dilution of the peptide that still caused release of hemoglobin from erythrocytes. The control for no release of hemoglobin was a sample of 1% erythrocytes without any peptide added. […] Peptide samples were diluted 2 fold in order to determine the concentration that produced no hemolysis. […] Hemoglobin release was determined spectrophotometrically at 570 nm. The hemolytic titer was the highest 2-fold dilution of the peptide that still caused release of hemoglobin from erythrocytes. The control for no release of hemoglobin was a sample of 1% erythrocytes without any peptide added.

[2] = system: Pseudomonas aeruginosa strains; conditions: for MIC GM: geometric mean of six Pseudomonas aeruginosa clinical isolates; for MIC CP 204: strain CP 204; for MIC M 2: strain M 2; for MIC PA 14: strain PA 14; for MIC PAK: strain PAK; for MIC PAO 1: strain PAO 1; for MIC WR 5: strain WR 5
[3] = system: S. typhimurium C610 abs; conditions: Salmonella typhimurium antibiotic sensitive strain
Protocol: (§1) The geometric mean MIC values from 6 microbial strains in this table were calculated to provide an overall evaluation of antimicrobial activity against gram-negative bacteria.
(§2) Measurement of Antimicrobial Activity—Minimal inhibitory concentrations (MICs) were determined using a standard microtiter dilution method in LB (Luria-Bertani) no-salt medium (10 g of tryptone and 5 g of yeast extract per liter). Briefly, cells were grown overnight at 37° C. in LB and diluted in the same medium. […] Plates were incubated at 37° C. for 24 hours and MICs determined as the lowest peptide concentration that inhibited growth. Alternatively, minimal inhibitory concentrations were determined using a standard microtiter dilution method in a Mueller-Hinton (MH) medium. Briefly, cells were grown overnight at 37° C. in MH broth and diluted in the same medium. […] Plates were incubated at 37° C. for 24 hours and MICs determined as the lowest peptide concentration that inhibited growth. However, for MIC determination of Pseudomonas aeruginosa clinical isolates, brain heart infusion (BH1) medium was used instead of MH broth. In addition, the bacteria were diluted to a final inoculum of 1×10^6 colony-forming units/ml.

[4] = system: E. coli (UB 1005 wt and DC2 abs); conditions: for MIC (μg/ml) E. coli C500 abs: antibiotic sensitive strain; for MIC (μg/ml) E. coli C498 wt: wild-type lab strain
Protocol: as §1, §2

[5] = Salmonella typhimurium wild-type lab strain
Protocol: as §1, §2

[6] = system: P. aeruginosa H187 wt; conditions: for MIC (μg/ml) Pa H188 abs: Pseudomonas aeruginosa antibiotic sensitive strain; for MIC (μg/ml) Pa H187 wt: Pseudomonas aeruginosa wild-type lab strain
Protocol: as §1, §2

[7] = system: human erythrocytes; assay: Hemolytic activity (MHC), Protocol B, 18 hours; conditions: for Hemolytic activity Fold: fold decrease in hemolytic activity compared to V681, 18 hours; for Hemolytic activity MHC: maximal peptide concentration producing no hemolysis after 18 hours, 37° C.; for MHC (μg/ml) hRBC: maximal peptide concentration with no hemolysis after 18 hours
Method in brief: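 Hemolysis of 1% human erythrocytes in phosphate-buffered saline by 2-fold diluted D-peptides, incubated 18 h at 37 °C; hemoglobin release read spectrophotometrically. Value is the maximal peptide concentration producing no hemolysis, relative to erythrocytes without peptide.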

[8] = system: gram-negative bacteria; assay: MIC, microtiter dilution, Gram-negative bacteria (geometric mean of 6 strains); assay type: cell-based; conditions: geometric mean of MIC values from all 6 Gram-negative strains of Table 11
Protocol: as §1
In Table 11, geometric mean MIC was calculated to provide an overall view of antimicrobial activity of the peptides against Gram-negative bacteria and was also used to calculate the therapeutic index.
as §2

[9] = system: Corynebacterium xerosis
[10] = system: Bacillus subtilis
[11] = system: Staphylococcus epidermidis
[12] = system: gram-positive bacteria; conditions: geometric mean of MIC values from all 6 gram-positive strains of Table 12
Protocol: as §2

[13] = system: C. albicans; conditions: fungus
Protocol: as §2

[14] = system: E. faecalis; conditions: wild type strain
Protocol: as §2

[15] = system: Staphylococcus aureus
[16] = RP-HPLC temperature profiling (hydrophobicity and self-association/dimerization parameter PA); assay type: physicochemical
Protocol: The retention time data for the peptides is shown in Table 5 which records retention times at 5° C., the maximal retention times and retention times at 80° C. during the temperature profiling. Temperatures of 5° C. and 80° C. were the lower and upper temperature limits of temperature profiling in RP-HPLC, representing dimerization of the peptides at 5° C. and the monomerization of peptides at 80° C. due to dissociation of the dimers. The maximal retention times represent the threshold points at which peptides transform from dimeric to monomeric form. Among the non-polar face substituted peptides, peptides with more hydrophobic substitutions (whether L- or D-amino acid substitutions) were more retained during RP-HPLC, i.e., peptides were eluted in the order of Lys, Gly, Ser, Ala, Val and Leu (Table 5). In addition, on the non-polar face, the L-analogs were always more retained than the D-diastereomers (Table 5, FIG. 5). […] In contrast, on the polar face, the elution order of peptides was not correlated with the order of amino acid side-chain hydrophobicity, e.g., PAL and PSL were more retained than PVL (Table 5); PSD was the most retained peptide among the D-amino acid substituted analogs on the polar face (Table 5).
The ability of the D-peptides to self-associate was determined by RP-HPLC temperature profiling. […] As expected, L- and D-peptide enantiomers were totally inseparable over this temperature range, since each pair of peptides is identical in sequence and must adopt identical conformations on interacting with the reversed-phase matrix, whether in an all-L- or all-D-conformation. RP-HPLC retention behavior has been frequently utilized to represent overall peptide hydrophobicity (53, 26). In the present study, the hydrophobicity of the three peptide pairs is in the order V681/D-V681>[…]>NKL/D-NKD (Table 4), which agrees with the change in hydrophobicity of the substitutions at position 13 in order of the most hydrophobic to the least hydrophobic amino acid residue (Val in V681>Ala in NA>Lys in NK) (54). […] For example, the retention times of peptides V681/D-V681 increase with increasing temperature (up to ˜30° C.) followed by a retention time decrease with a further temperature increase. […] Since peptide C is a monomeric random coil peptide in both aqueous and hydrophobic media, its retention behavior over the temperature range 5° C. to 80° C. represents only general temperature effects on peptide retention behavior, i.e., a linear decrease in peptide retention time with increasing temperature due to greater solute diffusivity and enhanced mass transfer between the stationary and mobile phases at higher temperatures (55). Thus, after normalization to the retention times of peptide C, the retention behavior of the peptides represents only peptide self-association ability. Note that the higher the PA value, the greater the self-association ability. […] From Table 4, it is also clear that the peptide retention times at 80° C. are dramatically lower than those at 5° C.
Elution times during RP-HPLC have frequently been utilized as a measure of relative hydrophobicity of peptide analogs (26, 31). In the current study, peptide analogs differed only by a single amino acid substitution on either the non-polar face or the polar face of V681; thus, the retention time data in Table 5 can be considered to reflect the hydrophobicity difference between peptide analogs. In order to more easily visualize the variation in hydrophobicity of the peptide analogs, the retention time data in Table 5 were normalized relative to that of the native peptide V681 at 5° C. and 80° C., respectively. Hydrophobicity relative to the native peptide V681 indicates an increase or decrease of the apparent peptide hydrophobicity with the different amino acid substitutions on the polar or non-polar face. […]

[17] = 50% TFE, 5° C., previous study (29); cited from earlier work

CC[C@@H](C)[C@@H](NC(=O)[C@@H](C)NC(=O)[C@@H](CCCCN)NC(=O)[C@@H](CC(C)C)NC(=O)[C@@H](C)NC(=O)[C@H](NC(=O)[C@@H](Cc1c[nH]cn1)NC(=O)[C@@H](CC(C)C)NC(=O)[C@H](NC(=O)[C@H](NC(=O)[C@@H](CCCCN)NC(=O)[C@H](C)NC(=O)[C@@H](C)NC(=O)[C@@H](CO)NC(=O)[C@@H](CCCCN)NC(=O)[C@@H](Cc1ccccc1)NC(=O)[C@H](NC(=O)[C@@H](CCCCN)NC(=O)[C@@H](CC(C)C)NC(=O)[C@@H](Cc1ccccc1)NC(=O)[C@@H](CO)NC(=O)[C@@H](CCCCN)NC(=O)[C@@H](Cc1c[nH]c2ccccc12)NC(=O)[C@@H](CCCCN)NC(C)=O)[C@H](C)O)[C@H](C)O)C(C)C)[C@H](C)O)C(=O)N[C@H](CO)C(=O)N[C@H](CO)C(N)=O [D-NAL]
hemolysis of human red blood cells ([1]; 500 μg/ml, after 1 hour incubation): approximately 40% | hemolysis of human red blood cells ([1]; peptide concentration of 32 μg/ml): negligible hemolysis | MIC GM [2]: 13.9 µg/mL (≈ 4.74 µM) | MIC CP 204 [2]: 7.8 µg/mL (≈ 2.66 µM) | MIC M 2 [2]: 15.6 µg/mL (≈ 5.32 µM) | MIC PA 14 [2]: 7.8 µg/mL (≈ 2.66 µM) | MIC PAK [2]: 31.3 µg/mL (≈ 10.7 µM) | MIC PAO 1 [2]: 7.8 µg/mL (≈ 2.66 µM) | MIC WR 5 [2]: 31.3 µg/mL (≈ 10.7 µM) | MIC (μg/ml) St C610 abs [3]: 3.1 µg/mL (≈ 1.06 µM) | MIC (μg/ml) E. coli C500 abs [4]: 3.1 µg/mL (≈ 1.06 µM) | MIC (μg/ml) E. coli C498 wt [4]: 3.1 µg/mL (≈ 1.06 µM) | MIC (μg/ml) St C587 wt [5]: 12.5 µg/mL (≈ 4.26 µM) | MIC (μg/ml) Pa H188 abs [6]: 3.1 µg/mL (≈ 1.06 µM) | MIC (μg/ml) Pa H187 wt [6]: 3.1 µg/mL (≈ 1.06 µM) | Hemolytic activity Fold [7]: 4 | Hemolytic activity MHC [7]: 31.3 µg/mL | MHC (μg/ml) hRBC ([7]; Table 11): 31.3 µg/mL | MHC (μg/ml) hRBC ([7]; Table 12): 31.3 µg/mL | MIC (μg/ml) GM [8]: 3.9 µg/mL (≈ 1.33 µM) | MIC (μg/ml) C. xerosis C875 wt [9]: 1.6 µg/mL (≈ 0.545 µM) | MIC (μg/ml) B. subtilis C971 wt [10]: 1.6 µg/mL (≈ 0.545 µM) | MIC (μg/ml) S. epidermidis C621 wt [11]: 1.6 µg/mL (≈ 0.545 µM) | MIC (μg/ml) GM [12]: 2.8 µg/mL (≈ 0.954 µM) | MIC (μg/ml) C. albicans [13]: 12.5 µg/mL (≈ 4.26 µM) | MIC (μg/ml) E. faecalis C625 wt [14]: 12.5 µg/mL (≈ 4.26 µM) | MIC (μg/ml) S. aureus 622 wt [15]: 3.1 µg/mL (≈ 1.06 µM) | MIC (μg/ml) S. aureus 623 methR [15]: 3.1 µg/mL (≈ 1.06 µM)

Ac-ELEKGGLEGEKGGKELEK-amide (Ac-ELEKGGLEGEKGGKELEK-NH2) [peptide C, reference compound]
tR (min) 5° C. ([16]; RP-HPLC retention time at 5° C. during temperature profiling (measure of hydrophobicity)): 22.74 min | tR (min) 80° C. ([16]; RP-HPLC retention time at 80° C. during temperature profiling): 18.64 min | [θ]222 [17]: −3,950

CC[C@@H](C)[C@@H](NC(=O)[C@@H](C)NC(=O)[C@@H](CCCCN)NC(=O)[C@@H](CC(C)C)NC(=O)[C@@H](C)NC(=O)[C@H](NC(=O)[C@@H](Cc1c[nH]cn1)NC(=O)[C@@H](CC(C)C)NC(=O)[C@H](NC(=O)[C@H](NC(=O)[C@@H](CCCCN)NC(=O)[C@@H](CCCCN)NC(=O)[C@@H](C)NC(=O)[C@@H](CO)NC(=O)[C@@H](CCCCN)NC(=O)[C@@H](Cc1ccccc1)NC(=O)[C@H](NC(=O)[C@@H](CCCCN)NC(=O)[C@@H](CC(C)C)NC(=O)[C@@H](Cc1ccccc1)NC(=O)[C@@H](CO)NC(=O)[C@@H](CCCCN)NC(=O)[C@@H](Cc1c[nH]c2ccccc12)NC(=O)[C@@H](CCCCN)NC(C)=O)[C@H](C)O)[C@H](C)O)C(C)C)[C@H](C)O)C(=O)N[C@H](CO)C(=O)N[C@H](CO)C(N)=O [D-NKD]
MIC GM [2]: 31.2 µg/mL (≈ 10.4 µM) | MIC CP 204 [2]: 15.6 µg/mL (≈ 5.22 µM) | MIC M 2 [2]: 31.3 µg/mL (≈ 10.5 µM) | MIC PA 14 [2]: 15.6 µg/mL (≈ 5.22 µM) | MIC PAK [2]: 125.0 µg/mL (≈ 41.8 µM) | MIC PAO 1 [2]: 15.6 µg/mL (≈ 5.22 µM) | MIC WR 5 [2]: 62.5 µg/mL (≈ 20.9 µM) | MIC (μg/ml) St C610 abs [3]: 3.1 µg/mL (≈ 1.04 µM) | MIC (μg/ml) E. coli C500 abs [4]: 3.1 µg/mL (≈ 1.04 µM) | MIC (μg/ml) E. coli C498 wt [4]: 3.1 µg/mL (≈ 1.04 µM) | MIC (μg/ml) St C587 wt [5]: 6.3 µg/mL (≈ 2.11 µM) | MIC (μg/ml) Pa H188 abs [6]: 3.1 µg/mL (≈ 1.04 µM) | MIC (μg/ml) Pa H187 wt [6]: 6.3 µg/mL (≈ 2.11 µM) | Hemolytic activity Fold [7]: 32 | Hemolytic activity MHC [7]: 250.0^h μg/ml | MHC (μg/ml) hRBC ([7]; Table 11): 250.0^h μg/ml | MHC (μg/ml) hRBC ([7]; Table 12): 250.0^h μg/ml | MIC (μg/ml) GM [8]: 3.9 µg/mL (≈ 1.3 µM) | MIC (μg/ml) C. xerosis C875 wt [9]: 1.6 µg/mL (≈ 0.535 µM) | MIC (μg/ml) B. subtilis C971 wt [10]: 1.6 µg/mL (≈ 0.535 µM) | MIC (μg/ml) S. epidermidis C621 wt [11]: 3.1 µg/mL (≈ 1.04 µM) | MIC (μg/ml) GM [12]: 4.0 µg/mL (≈ 1.34 µM) | MIC (μg/ml) C. albicans [13]: 25.0 µg/mL (≈ 8.36 µM) | MIC (μg/ml) E. faecalis C625 wt [14]: 12.5 µg/mL (≈ 4.18 µM) | MIC (μg/ml) S. aureus 622 wt [15]: 6.3 µg/mL (≈ 2.11 µM) | MIC (μg/ml) S. aureus 623 methR [15]: 6.3 µg/mL (≈ 2.11 µM)
